Results taken from PMC5500991, “Substituted arylsulphonamides as inhibitors of perforin-mediated lysis” (European Journal of Medicinal Chemistry, 2017).
Counter-ions that a name gives are not always drawn.

Row | Structure (SMILES) | melting point
1 | CN1Cc2cc(-c3ccc(-c4cncc(NS(=O)(=O)c5ccccc5F)c4)s3)ccc2C1=O [Compound 22, 2-Fluoro-N-(5-(5-(2-methyl-1-oxoisoindolin-5-yl)thiophen-2-yl)pyridin-3-yl)benzenesulfonamide] | 289 to 292 °C
2 | CN1Cc2cc(-c3ccc(-c4ccnc(NS(=O)(=O)c5ccc(F)cc5F)c4)s3)ccc2C1=O [Compound 5, 2,4-Difluoro-N-(4-(5-(2-methyl-1-oxoisoindolin-5-yl)thiophen-2-yl)pyridin-2-yl)benzenesulfonamide] | 235 to 239 °C
3 | COc1ccccc1S(=O)(=O)Nc1cncc(-c2ccc(-c3ccc4c(c3)CN(C)C4=O)s2)c1 [Compound 37, 2-Methoxy-N-(5-(5-(2-methyl-1-oxoisoindolin-5-yl)thiophen-2-yl)pyridin-3-yl)benzenesulfonamide] | 273 to 276 °C
4 | COc1ncc(-c2ccc(-c3ccc4c(c3)CN(C)C4=O)s2)cc1NS(=O)(=O)c1ccc(F)cc1F [Compound 12, 2,4-Difluoro-N-(2-methoxy-5-(5-(2-methyl-1-oxoisoindolin-5-yl)-thiophen-2-yl)pyridin-3-yl)benzenesulphonamide] | 224 to 227 °C
5 | CN1Cc2cc(-c3ccc(-c4cncc(S(=O)(=O)Nc5ccc(F)cc5F)c4)s3)ccc2C1=O [Compound 7, N-(2,4-Difluorophenyl)-5-(5-(2-methyl-1-oxoisoindolin-5-yl)thiophen-2-yl)pyridine-3-sulphonamide] | 221 to 224 °C
6 | CN1Cc2cc(-c3ccc(-c4cncc(NS(=O)(=O)c5ccc(Cl)cc5Cl)c4)s3)ccc2C1=O [Compound 31, 2,4-Dichloro-N-(5-(5-(2-methyl-1-oxoisoindolin-5-yl)thiophen-2-yl)pyridin-3-yl)benzenesulfonamide] | 282 to 285 °C
7 | CN1Cc2cc(-c3ccc(-c4cncc(NS(=O)(=O)c5ccccc5Br)c4)s3)ccc2C1=O [Compound 32, 2-Bromo-N-(5-(5-(2-methyl-1-oxoisoindolin-5-yl)thiophen-2-yl)pyridin-3-yl)benzenesulfonamide] | 289 to 293 °C

Now from value to molecule:

Row | melting point | Structure (SMILES)
8 | 281 to 284 °C | CN1Cc2cc(-c3ccc(-c4cncc(NS(=O)(=O)c5ccc(Cl)cc5)c4)s3)ccc2C1=O [Compound 29, 4-Chloro-N-(5-(5-(2-methyl-1-oxoisoindolin-5-yl)thiophen-2-yl)pyridin-3-yl)benzenesulfonamide]
9 | > 300 °C | CN1Cc2cc(-c3ccc(-c4cncc(NS(=O)(=O)c5ccc(S(C)(=O)=O)cc5)c4)s3)ccc2C1=O (as salt: sodium) [Compound 57, Sodium (5-(5-(2-methyl-1-oxoisoindolin-5-yl)thiophen-2-yl)pyridin-3-yl)((4-(methylsulfonyl)phenyl)sulfonyl)amide]
10 | 295 to 298 °C | CN1Cc2cc(-c3ccc(-c4cncc(NS(=O)(=O)c5ccc(I)cc5)c4)s3)ccc2C1=O [Compound 36, 4-Iodo-N-(5-(5-(2-methyl-1-oxoisoindolin-5-yl)thiophen-2-yl)pyridin-3-yl)benzenesulfonamides]
11 | 269 to 272 °C | COC(=O)c1ccc(S(=O)(=O)Nc2cncc(-c3ccc(-c4ccc5c(c4)CN(C)C5=O)s3)c2)cc1 [Compound 53, Methyl 4-(N-(5-(5-(2-methyl-1-oxoisoindolin-5-yl)thiophen-2-yl)pyridin-3-yl)sulfamoyl)benzoate]
12 | 272 to 275 °C | CCOC(=O)c1ccc(S(=O)(=O)Nc2cncc(-c3ccc(-c4ccc5c(c4)CN(C)C5=O)s3)c2)cc1 [Compound 54, Ethyl 4-(N-(5-(5-(2-methyl-1-oxoisoindolin-5-yl)thiophen-2-yl)pyridin-3-yl)sulfamoyl)benzoate]
13 | 282 to 284 °C | CN1Cc2cc(-c3ccc(-c4cncc(NS(=O)(=O)c5ccc(C(F)(F)F)cc5)c4)s3)ccc2C1=O [Compound 46, N-(5-(5-(2-Methyl-1-oxoisoindolin-5-yl)thiophen-2-yl)pyridin-3-yl)-4-(trifluoromethyl)benzenesulfonamide]
